Reference: US10988508B2, “Synthetic N-acetyl-muramic acid derivatives and uses thereof” (University of Delaware, priority 2015, dated 2021)
“Also recorded” adds a separate entry of the source. Like-named read-outs stand apart in the source and are kept apart here. One block for each molecule: values may come before it.

What was measured:
Nod2 [1] = biological target: T1, Nod2 (Homo sapiens, UniProt Q9HC29); design: expressed in transfected cells; host or cells: HEK293T; details: cited from earlier work
T1 sequence (Q9HC29 whole entry): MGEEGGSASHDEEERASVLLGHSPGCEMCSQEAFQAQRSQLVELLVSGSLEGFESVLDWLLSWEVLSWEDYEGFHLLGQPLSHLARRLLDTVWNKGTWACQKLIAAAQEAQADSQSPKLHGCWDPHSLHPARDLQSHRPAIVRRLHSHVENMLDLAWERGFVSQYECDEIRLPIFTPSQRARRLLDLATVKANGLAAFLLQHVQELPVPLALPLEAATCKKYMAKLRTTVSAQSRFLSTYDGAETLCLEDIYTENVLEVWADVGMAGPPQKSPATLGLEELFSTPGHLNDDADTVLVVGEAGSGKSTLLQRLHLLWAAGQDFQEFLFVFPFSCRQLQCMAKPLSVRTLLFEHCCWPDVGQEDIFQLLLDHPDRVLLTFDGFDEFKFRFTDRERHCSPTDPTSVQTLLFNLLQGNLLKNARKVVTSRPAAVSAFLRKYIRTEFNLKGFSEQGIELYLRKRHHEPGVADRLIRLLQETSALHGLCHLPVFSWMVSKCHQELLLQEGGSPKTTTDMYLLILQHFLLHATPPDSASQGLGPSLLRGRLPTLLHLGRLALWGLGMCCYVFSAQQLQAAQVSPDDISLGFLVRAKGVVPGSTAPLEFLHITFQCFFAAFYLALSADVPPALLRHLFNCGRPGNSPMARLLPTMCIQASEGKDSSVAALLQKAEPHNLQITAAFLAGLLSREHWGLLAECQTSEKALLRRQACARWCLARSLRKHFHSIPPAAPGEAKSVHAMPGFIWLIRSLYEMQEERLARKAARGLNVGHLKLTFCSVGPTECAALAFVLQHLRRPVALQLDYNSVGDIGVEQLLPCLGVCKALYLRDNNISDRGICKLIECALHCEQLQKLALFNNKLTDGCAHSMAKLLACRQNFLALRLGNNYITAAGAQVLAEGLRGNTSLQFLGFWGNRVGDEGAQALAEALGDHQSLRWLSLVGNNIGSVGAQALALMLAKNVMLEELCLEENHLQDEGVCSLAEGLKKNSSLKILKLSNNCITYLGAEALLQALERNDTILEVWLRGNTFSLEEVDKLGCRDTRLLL

Nod2 [2] = biological target: T1, Nod2; experiment: Nod2 half-life by cycloheximide chase and western blot in HEK 293T-Nod2myc/Tet-op cells; assay type: cell-based; design: expressed in transfected cells; host or cells: HEK293T; details: for stabilization of Nod2 (in words): compared to untreated control
Description: HEK 293T-Nod2myc/Tet-op cells were incubated with MDP derivatives (compound D2 is shown) or water (Ctrl) and lysates were collected after cycloheximide treatment during the indicated time intervals. Equal amount of lysates were subjected to western blot and probed using rabbit anti-myc antibody. β-actin was used as a loading control.
Nod2 is a transiently stable protein. It is well-known that ligand binding can affect the stability of a receptor. We considered that the interaction of peptidoglycan derivatives with Nod2 could alter the stability of the protein. In order to determine if ligand interaction changes the half-life of Nod2, we analyzed the naturally occurring MDPs (D2, D9, D1), and a subset of the peptidoglycan derivatives with increased activity (D24, D25) or structural similarity (D53, D16) to D2 or D9. We made use of a tetracycline-induced Nod2 expressing cell line, an excellent match for endogenous Nod2 cell lines, and cycloheximide inhibition of protein synthesis to determine the half-life of Nod2 in the presence of the MDP derivatives. Half-life was determined by first order decay according to literature precedent. […] When Nod2 is not treated with a peptidoglycan derivative, the half-life is 7.1±1.4 hours. […] As compound D1 is the only compound tested that contains an amine, which will be positively charged at cellular pH, we were concerned that cell permeability may be a factor. We analyzed the ability of 6-amino-MDP (18 in Table 4), a MDP derivative that replaces the 6-primary-hydroxy group with an amine.

E. coli ΔmurQ-KU cells = experiment: in vivo peptidoglycan remodeling and CuAAC fluorophore labeling, visualized by SIM; assay type: cell-based; details: 0.2% (w/v) sugar, fosfomycin 200 μg/mL, IPTG 1 mM, CuAAC with rhodamine or Cy-5
[3] = tested on: E. coli cells with AmgK, MurU and ΔMurQ; experiment: labeling efficiency by flow cytometry (FACS) after click with Cy-5; assay type: cell-based; details: after CuAAC with Cy-5
Nod2 [4] = biological target: T1, Nod2; experiment: Nod2-dependent NF-κB luciferase reporter assay in transfected HEK293T cells; details: 20 μM; for NF-KB Fold Activation ± SD: 12 h, HEK293T, (+) Nod2 plasmid normalized to (−) Nod2 plasmid
mouse Nod2 = biological target: T2, mouse Nod2 (Mus musculus, UniProt Q8K3Z0); details: 200 μM, protein synthesis not inhibited; cited from earlier work
T2 sequence (Q8K3Z0 1-1020): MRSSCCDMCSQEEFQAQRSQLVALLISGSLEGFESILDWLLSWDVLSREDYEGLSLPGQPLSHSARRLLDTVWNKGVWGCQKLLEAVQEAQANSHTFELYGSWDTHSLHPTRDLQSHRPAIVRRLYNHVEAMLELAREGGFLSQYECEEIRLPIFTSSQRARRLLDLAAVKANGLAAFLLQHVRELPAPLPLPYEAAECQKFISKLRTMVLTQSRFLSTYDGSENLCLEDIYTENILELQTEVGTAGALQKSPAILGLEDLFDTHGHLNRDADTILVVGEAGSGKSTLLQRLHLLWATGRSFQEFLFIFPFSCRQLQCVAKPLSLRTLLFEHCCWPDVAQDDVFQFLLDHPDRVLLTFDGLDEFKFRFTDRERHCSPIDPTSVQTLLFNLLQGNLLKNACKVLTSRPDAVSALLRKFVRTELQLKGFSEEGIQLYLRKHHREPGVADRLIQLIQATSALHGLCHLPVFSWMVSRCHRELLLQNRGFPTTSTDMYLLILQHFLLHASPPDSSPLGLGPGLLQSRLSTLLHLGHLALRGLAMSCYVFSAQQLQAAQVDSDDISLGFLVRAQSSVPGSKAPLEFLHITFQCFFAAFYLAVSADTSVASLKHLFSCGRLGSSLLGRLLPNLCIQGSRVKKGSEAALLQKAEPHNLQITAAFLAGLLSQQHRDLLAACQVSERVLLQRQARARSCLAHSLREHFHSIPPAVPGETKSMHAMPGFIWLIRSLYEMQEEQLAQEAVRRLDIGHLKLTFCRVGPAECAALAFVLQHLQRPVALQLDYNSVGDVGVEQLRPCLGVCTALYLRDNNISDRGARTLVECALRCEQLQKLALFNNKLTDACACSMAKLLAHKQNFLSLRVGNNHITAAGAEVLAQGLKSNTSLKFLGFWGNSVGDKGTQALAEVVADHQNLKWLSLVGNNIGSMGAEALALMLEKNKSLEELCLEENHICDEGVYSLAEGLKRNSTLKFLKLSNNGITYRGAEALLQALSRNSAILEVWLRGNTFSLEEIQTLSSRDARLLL

Nod2 [5] = biological target: T1, Nod2; experiment: in vitro binding assay of Nod2; design: expressed in transfected cells; host or cells: HEK293T
From the text: This could be from either the endogenous Nod2 and/or other targets of the bacterial cell wall ligands.

SMILES: CC(=O)NC1C(O)OC(CN)C(O)[C@@H]1O[C@H](C)C(=O)N[C@@H](C)C(=O)N[C@H](CCC(=O)O)C(N)=O (some centres unmarked) [6-amino-MDP]
- NF-κB activation in a Nod2-dependent manner (known) (Nod2 [1]): activate NF-κB in a Nod2-dependent manner
- NF-KB Fold Activation ± SD (Nod2 [1]; value marked with reference 19): 2.8 ± 0.1^19 Fold
- increase of the half-life of Nod2 (Nod2 [2]; versus untreated): ~3 fold

SMILES: CC(=O)N[C@H]1C(O)O[C@H](CO)[C@@H](O)[C@@H]1O[C@H](C)C(=O)O (some centres unmarked) [A2, N-acetyl-muramic acid]
- fluorescent labeling of cells under SIM (E. coli ΔmurQ-KU cells): couldn't detect any fluorescence
- fluorescent signal in the gated Cy-5 channel [3]: slight fluorescence intensity

SMILES: C[C@H](NC(=O)[C@@H](C)O[C@@H]1[C@@H](N)[C@H](O)O[C@H](CO)[C@H]1O)C(=O)N[C@H](CCC(=O)O)C(N)=O [D1, (R)-5-amino-4-((S)-2-((R)-2-(((2R,3R,4R,5S,6R)-3-amino-2,5-dihydroxy-6-(hydroxymethyl)tetrahydro-2H-pyran-4-yl)oxy)propanamido)propanamido)-5-oxopentanoic acid]
- NF-κB activation (in words) (Nod2 [4]): did not activate NF-κB; also recorded: does not elicit an immune response via the Nod2-dependent pathway
- NF-KB Fold Activation ± SD (Nod2 [4]): No activation
- stabilization of Nod2 (in words) (Nod2 [2]): no stabilization of Nod2; also recorded: did not stabilize; also recorded: no stabilizing effect

Now from value to molecule, other results behind:

- NF-KB Fold Activation ± SD (Nod2 [4]): 1.8 ± 0.3 Fold
- Kd (Nod2 [5]): 51 nM
- stabilization of Nod2 (in words) (Nod2 [2]): capable of stabilizing Nod2
SMILES: CC(=O)N[C@H]1C(O)O[C@H](CO)[C@@H](O)[C@@H]1O[C@H](C)C(=O)N[C@@H](C)C(=O)N[C@H](CCC(=O)O)C(N)=O (some centres unmarked) [D2, N-acetyl-MDP]
- effect on Nod2 level (mouse Nod2): led to the degradation of Nod2

- NF-KB Fold Activation ± SD (Nod2 [4]): 3.1 ± 0.3 Fold
- stabilization of Nod2 (in words) (Nod2 [2]): capable of stabilizing Nod2
SMILES: C[C@@H](NC(=O)[C@@H](C)OC1C(NC(=O)CO)[C@@H](O)OC(CO)[C@H]1O)C(=O)NC(CCC(=O)O)C(N)=O (some centres unmarked) [D9, N-glycolyl-MDP]
